Assay results as given in patent US6953788B1, “3-mercaptoacetylamino-1,5-substituted-2-oxo-azepan derivatives useful as inhibitors of matrix metalloproteinase” (Aventis Pharmaceuticals Inc., priority 1996, dated 2005).

Legend:
MMP-3 (Stromelysin-1) = biological target: T1, MMP-3 (Stromelysin-1) (Homo sapiens, UniProt P08254); assay: Determination of inhibition constant (Ki) for MMP-3, fluorogenic substrate; format: biochemical; settings: activated MMP-3, 37° C., pH 7.6
T1 construct: The active MMP-3 was obtained by treatment of proMMP-3 with trypsin; endogenous in cells; host or cells: human rheumatoid synovial fibroblasts stimulated with macrophage-conditioned medium (secreted into the culture medium)
Description: Aliquots of the activated MMP-3 were stored at −20° C.
The activated MMP-3 is assayed using a fluorogenic substrate, Mca-Pro-Leu-Gly-Leu-Dpa-Ala-Arg-NH2, Knight, C. […] The increase in fluorescence due to cleavage of Gly-Leu peptide bond by MMP-3 was monitored with Perkin-Elmer LS50B Fluorimeter (λex328 nm, λem393 nm, excitation slit 2.5, emission slit 10). Substrate and inhibitor stock solutions were made in DMF and 0.1% HCl-DMF, respectively. […] The enzyme (10 μL of 0.2 μM MMP-3 dilution in assay buffer) was added at the last to start the reaction. […] Under these conditions, the measured Ki,app is close to true Ki.
(§1) The Ki for a competitive inhibitor is calculated using: v0/vi=(1+[I]/Ki,app) and Ki=Ki,app/(1+[S]/KM), where v0 is the initial rate in the absence of inhibitor, vi is the initial rate in the presence of inhibitor at the concentration of [I], [S] is the substrate concentration, and Km is the Michaelis constant. If slow binding is observed (i.e. if the approach to the binding equilibrium is slow), the final steady-state rate rather than the initial rate is taken as vi.

[1] = biological target: T2, MMP-12 (macrophage metalloelastase) (Homo sapiens, UniProt P39900); assay: Determination of inhibition constant (Ki) for MMP-12, fluorogenic substrate; format: biochemical; settings: 25C., pH 7.6
T2 construct: made in house
Description: as §1

T1 sequence (P08254 100-477): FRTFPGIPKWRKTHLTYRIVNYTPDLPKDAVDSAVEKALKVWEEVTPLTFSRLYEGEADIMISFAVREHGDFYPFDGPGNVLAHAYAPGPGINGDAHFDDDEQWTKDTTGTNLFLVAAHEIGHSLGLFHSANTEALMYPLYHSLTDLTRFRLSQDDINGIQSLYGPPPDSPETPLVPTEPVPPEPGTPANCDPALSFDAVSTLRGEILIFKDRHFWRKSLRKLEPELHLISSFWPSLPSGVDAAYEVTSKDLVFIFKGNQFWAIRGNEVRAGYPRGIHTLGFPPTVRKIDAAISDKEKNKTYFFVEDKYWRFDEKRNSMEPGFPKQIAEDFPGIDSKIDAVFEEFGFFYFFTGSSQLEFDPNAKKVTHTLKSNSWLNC
T2 sequence (P39900 106-263 limits assumed): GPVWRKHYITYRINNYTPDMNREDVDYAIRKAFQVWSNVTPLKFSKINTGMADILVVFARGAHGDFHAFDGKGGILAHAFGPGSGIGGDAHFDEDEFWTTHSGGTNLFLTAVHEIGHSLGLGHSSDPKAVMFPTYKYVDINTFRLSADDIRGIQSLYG

SMILES | Ki (MMP-3 (Stromelysin-1)) | Ki [1]
CNC(=O)[C@H](Cc1ccccc1)N1CCN(Cc2ccccc2)C[C@H](NC(=O)[C@@H](S)CCCCN2C(=O)c3ccccc3C2=O)C1=O (relative stereo) [IV-1, 2H-Isoindole-2-hexanamide, N-[hexahydro-4-[2-(methylamino)-2-oxo-1-(phenylmethyl)ethyl]-5-oxo-1-(phenylmethyl)-1H-1,4-diazepin-6-yl]-1,3-dihydro-α-mercapto-1,3-dioxo-, [6S-[4(R*), 6R*(R*)]]-] | 210 nM | –
CNC(=O)C(Cc1ccccc1)N1CCC(c2ccccc2)CC(NC(=O)C(S)CCCCN2C(=O)c3ccccc3C2=O)C1=O (stereo not drawn) [III-1, 2H-Isoindole-2-hexanamide, N-[hexahydro-1-[2-(methylamino)-2-oxo-1-(phenylmethyl)ethyl]-2-oxo-5-phenyl-1H-azepin-3-yl]-1,3-dihydro-α-mercapto-1,3-dioxo-, [3S-[1(R*), 3α, 5β]]-] | 73 nM | 53 nM
